# Measurements from patent publication US20020132276A1, “FACS method for detecton of GPIIb/IIIa inhibitor dependent activators in plasma samples” (priority 1999, published 2002).
# Entries after “also recorded” stand apart in the source; their conditions may differ.
# Test system: drug-dependent anti-platelet antibody (DDAB)
# Assay: Depletion and recovery of DDAB from patient 099016 plasma by platelets with Compound A, read in the DDAB ELISA
# Assay type: binding, human
# Protocol: Thrombocytopenic patient plasma was processed as described in Example 9. After treatment of 099016 plasma with platelets in the presence and in the absence of Compound A, samples were evaluated in the DDAB ELISA (see commonly-owned pending U.S. patent application Ser. No. 09/237061, filed Jan. 26, 1999, the contents of which are herein incorporated by reference) at 3 dilutions (1/100; 1/250 and 1/500) for residual DDAB. Murine JK094 was used as a positive control for the ELISA.
# Thrombocytopenic patient 099016 plasma was processed with platelets in the presence or the absence of Compound A to deplete any DDAB as described in Example 9. After treatment of 099016 plasma with platelets in the presence and in the absence of Compound A, samples were evaluated in the DDAB ELISA at 3 dilutions (1/100, 1/250 and 1/500) for residual DDAB. Murine JK094 was used as a positive control for the ELISA.
compound,measurement,setting,value
"CCCCOC(=O)N[C@@H](CNC(=O)C[C@H]1CC(c2ccc(C(=N)N)cc2)=NO1)C(=O)O [Compound A, 2(S)-[(n-butoxycarbonyl)amino]-3-[[[3-[4-(aminoiminomethyl)phenyl]isoxazolin-5(R)-yl]methylcarbonyl]amino]propionic acid]",residual DDAB in plasma after treatment with platelets,"patient 099016 plasma, donor platelets, Compound A, dilutions 1/100, 1/250 and 1/500",specifically depleted the DDAB
same,DDAB in EDTA eluants of platelets,platelets treated with 099016 plasma with Compound A,showed DDAB; also recorded: contain a detectable DDAB
